Measurements published in patent publication US4843062A, “N-acyl-N-napthoylglycines as aldose reductase inhibitors” (American Home Products Corporation, priority 1987, dated 1989).
Like-named read-outs stand apart in the source and are kept apart here.

What was measured:
[1] = test system: lens (galactitol accumulation); test: Galactitol (dulcitol) accumulation in lens of galactosemic rats; assay type: in vivo, rat (male, Sprague-Dawley); conditions: four days
Description: (§1) The aldose reductase inhibiting property of the compounds of this invention and the utilization of the compounds in preventing, diminishing and alleviating diabetic complications are demonstrable in experiments using galactosemic rats, see Dvornik et al, Science, 182, 1146 (1973). Such experiments are exemplified hereinbelow after the listing of the following general comments pertaining to these experiments.
(§2) (a) Four or more groups of six male rats, 50-70 g, Sprague-Dawley strain, were used. The first group, the control group, was fed a mixture of laboratory chow (rodent Laboratory Chow, Purina) and glucose at 20% (w/w %) concentration. The untreated galactosemic group and the drug-treated groups were fed a similar diet in which galactose is substituted for glucose. The test compound was either admixed to the diet or administered by gavage. In experiments involving compound administration in the diet, the average dose administered was calculated from the actual food intake of the animals in each group. The concentration of galactose in the diet of the treated groups was the same as that for the untreated galactosemic group.
(§3) (b) After four days, the animals were killed by decapitation. The eyeballs were removed and punctured with a razor blade; the freed lenses were rolled gently on filter paper and weighed. The sciatic nerves were dissected as completely as possible and weighed. Both tissues when frozen can be kept up to two weeks before being analyzed for galactitol.
(c) The polyol determination was performed by a modification of the procedure of M. Kraml and L. Cosyns, Clin. Biochem., 2,373 (1969). Only two minor reagent changes were made: (a) The rinsing mixture was an aqueous 5% (w/v) trichloroacetic acid solution and (b) the stock solution was prepared by dissolving 25 mg of dulcitol in 100 mL of an aqueous trichloroacetic acid solution. [N.B.: For each experiment the average value found in the tissue from rats fed the glucose diet was subtracted from the individual values found in the corresponding tissue in galactose-fed rats to obtain the amount of polyol accumulated.] The aldose reductase inhibiting effects of the compounds of formula (I) were also tested by employing an in vitro testing procedure similar to that described by S. Hayman and J. H. Kinoshita, J. Biol. Chem., 240,877 (1965). In the present case the procedure of Hayman and Kinoshita was modified in that the final chromatography step was omitted in the preparation of the enzyme from bovine lens.
(§4) The figures under L, N, and D represent the percentage decrease of galactitol accumulation in the tissues of the lens, sciatic nerve, and diaphragm, respectively, for treated rats as compared to untreated rats.

[2] = molecular target: T1, aldose reductase (Bos taurus, UniProt P16116); test: Aldose reductase inhibition in vitro (enzyme preparation from bovine lens, modified Hayman and Kinoshita procedure); assay type: biochemical; conditions: for inhibition at 10 µM / inhibition at 1 µM: read-out: % Inhibition IN VITRO; for inhibition at 0.1 µM: 10^-7 M
T1 construct: preparation of the enzyme from bovine lens; from tissue; host or cells: bovine lens
Method: (§5) Only two minor reagent changes were made: (a) The rinsing mixture was an aqueous 5% (w/v) trichloroacetic acid solution and (b) the stock solution was prepared by dissolving 25 mg of dulcitol in 100 mL of an aqueous trichloroacetic acid solution. [N.B.: For each experiment the average value found in the tissue from rats fed the glucose diet was subtracted from the individual values found in the corresponding tissue in galactose-fed rats to obtain the amount of polyol accumulated.] […] In the present case the procedure of Hayman and Kinoshita was modified in that the final chromatography step was omitted in the preparation of the enzyme from bovine lens.

[3] = test system: sciatic nerve (galactitol accumulation); test: Galactitol (dulcitol) accumulation in sciatic nerve of galactosemic rats; assay type: in vivo, rat (male, Sprague-Dawley); conditions: four days
Description: (§6) Such experiments are exemplified hereinbelow after the listing of the following general comments pertaining to these experiments.
as §2, with “The untreated galactosemic group and the drug-treated groups were fed a similar diet in which galactose is substituted for glucose.” left out
as §3
as §5, with “(c) The polyol determination was performed by a modification of the procedure of M. Kraml and L. Cosyns, Clin. Biochem., 2,373 (1969). Only” for “Only”
as §4

[4] = test system: diaphragm (galactitol accumulation); test: Galactitol (dulcitol) accumulation in diaphragm of galactosemic rats; assay type: in vivo, rat (male, Sprague-Dawley); conditions: four days
Description: as §6
as §2, with “The untreated galactosemic group and the drug-treated groups were fed a similar diet in which galactose is substituted for glucose.” left out
as §5, with “(c) The polyol determination was performed by a modification of the procedure of M. Kraml and L. Cosyns, Clin. Biochem., 2,373 (1969). Only” for “Only”
as §4

[5] = test system: rats fed galactose; test: Galactosemic rat experiments; assay type: in vivo, rat (male, Sprague-Dawley); conditions: 48 mg/kg/day versus tolrestat at 9 mg/kg/day
Description: as §1, §2
(b) After four days, the animals were killed by decapitation. […] Both tissues when frozen can be kept up to two weeks before being analyzed for galactitol. […]

Row | SMILES | inhibition at 10 µM ([2]; 10^-5 M) [%] | inhibition at 1 µM ([2]; 10^-6 M) [%] | inhibition at 0.1 µM [2] [%] | also measured
1 | COc1ccc2c(C(=S)N(C)CC(=O)O)cccc2c1C(F)(F)F [Example 18b, N-[[6-methoxy-5-(trifluoromethyl)-1-napthalenyl]thioxomethyl]-N-methyglycine, reference compound] |  |  |  | % Lowering dulcitol accumulation IN VIVO (%)L ([1]; 9 mg/kg): N.S.
2 | COC(=O)N(CC(=O)O)C(=O)c1cccc2c(Br)cccc12 [Example 12] | 85 | 54 | 10 | % Lowering dulcitol accumulation IN VIVO (%)L ([1]; 102 mg/kg): N.S.; % Lowering dulcitol accumulation IN VIVO (%)N ([3]; 102 mg/kg): N.S.
3 | COc1ccc2c(C(=O)N(CC(=O)O)C(C)=O)cccc2c1C(F)(F)F [Example 9] |  | 91 | 61 | inhibition at 10 µM [2]: 96%; % Lowering dulcitol accumulation IN VIVO (%)L ([1]; 100 mg/kg): N.S.; % Lowering dulcitol accumulation IN VIVO (%)N ([3]; 100 mg/kg): 36%
4 | COc1ccc2c(C(=O)N(CC(=O)O)C(=O)c3ccccc3)cccc2c1C(F)(F)F [Example 10, N-Benzoyl-N-[[6-methoxy-5-(trifluoromethyl)-1-naphthalenyl]carbonyl]glycine] | 90 | 62 | 15 | % Lowering dulcitol accumulation IN VIVO (%)L ([1]; 50 mg/kg): N.S.; % Lowering dulcitol accumulation IN VIVO (%)N ([3]; 50 mg/kg): N.S.; % Lowering dulcitol accumulation IN VIVO (%)D ([4]; 50 mg/kg): N.S.
5 | O=C(O)CN(C(=O)OCc1ccccc1)C(=O)c1cccc2c(Br)cccc12 [Example 13] | 87 | 57 | 12 | 
6 | CCCOC(=O)N(CC(=O)O)C(=O)c1cccc2c(C(F)(F)F)c(OC)ccc12 [Example 3] | 95 | 90 | 81 | inhibition at 0.04 µM ([2]; 4 × 10^-8 M): 48%; % Lowering dulcitol accumulation IN VIVO (%)L ([1]; 48 mg/kg): N.S.; % Lowering dulcitol accumulation IN VIVO (%)N ([3]; 48 mg/kg): N.S.; % Lowering dulcitol accumulation IN VIVO (%)D ([4]; 48 mg/kg): N.S.
7 | O=C(O)CN(C(=O)c1ccccc1)C(=O)c1cccc2c(Br)cccc12 [Example 16] | 83 | 58 | 10 | % Lowering dulcitol accumulation IN VIVO (%)L ([1]; 111 mg/kg): N.S.; % Lowering dulcitol accumulation IN VIVO (%)N ([3]; 111 mg/kg): N.S.; % Lowering dulcitol accumulation IN VIVO (%)D ([4]; 111 mg/kg): N.S.
8 | COc1ccc2c(C(=O)N(C=O)CC(=O)O)cccc2c1C(F)(F)F [Example 8, N-Fromyl-N-[[6-methoxy-5-(trifluoromethyl)-1-naphthalenyl]carbonyl]glycine] | 95 |  | 89 | inhibition at 1 µM [2]: 96%; % Lowering dulcitol accumulation IN VIVO (%)N ([3]; 107 mg/kg): 51%
9 | COC(=O)N(CC(=O)O)C(=O)c1cccc2c(C(F)(F)F)c(OC)ccc12 [Example 2, N-[[6-Methoxy-5-(trifluoromethyl)-1-naphthalenyl]carbonyl]-N-[(methoxy)carbonyl]glycine] | 98 | 97 | 82 | % Lowering dulcitol accumulation IN VIVO (%)L ([1]; 48 mg/kg): N.S.; % Lowering dulcitol accumulation IN VIVO (%)N ([3]; 48 mg/kg): 70%; results compared with tolrestat [5]: comparable results
